Patent US8017792B2, “1-thio-D-glucitol derivatives” (Taisho Pharmaceutical Co., Ltd., priority 2005, dated 2011)

Assays:
Human SGLT2 = target: T1, Human SGLT2 (Homo sapiens, UniProt P31639); experiment: Sodium-dependent sugar uptake inhibition test in CHO-K1 cells stably expressing human SGLT2 (Test Example 2); format: cell-based; conditions: for IC50: CHO-K1 cells, [14C]methyl-α-D-glucopyranoside 1 mM, 37° C., one hour; for SGLT1/SGLT2: ratio of IC50 human SGLT1 to IC50 human SGLT2
T1 construct: expressed in transfected cells; host or cells: CHO-K1
T1 sequence (P31639 1-672): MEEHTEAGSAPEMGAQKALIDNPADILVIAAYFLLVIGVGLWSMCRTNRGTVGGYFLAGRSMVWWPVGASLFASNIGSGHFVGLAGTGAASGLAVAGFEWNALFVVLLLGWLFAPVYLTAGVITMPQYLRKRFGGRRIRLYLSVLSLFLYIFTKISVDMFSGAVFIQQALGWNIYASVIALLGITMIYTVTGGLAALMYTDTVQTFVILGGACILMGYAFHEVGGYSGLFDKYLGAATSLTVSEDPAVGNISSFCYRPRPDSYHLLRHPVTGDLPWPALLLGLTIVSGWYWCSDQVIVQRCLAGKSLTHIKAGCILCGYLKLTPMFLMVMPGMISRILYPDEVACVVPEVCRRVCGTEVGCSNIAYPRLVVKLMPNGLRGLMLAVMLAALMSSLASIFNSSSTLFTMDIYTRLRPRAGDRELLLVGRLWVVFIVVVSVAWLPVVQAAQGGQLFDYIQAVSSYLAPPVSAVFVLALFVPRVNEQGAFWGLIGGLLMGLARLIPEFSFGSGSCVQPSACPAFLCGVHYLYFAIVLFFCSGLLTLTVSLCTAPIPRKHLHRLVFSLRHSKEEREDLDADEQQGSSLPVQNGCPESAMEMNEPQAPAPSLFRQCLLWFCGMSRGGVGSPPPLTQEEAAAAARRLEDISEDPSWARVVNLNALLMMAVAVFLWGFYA
Method: (§1) Human SGLT1 sequence (NM_000343) was reverse-transcripted from human small intestinal mRNA, then amplified, and then introduced into pCMV-tag5A from Stratagene Corporation. Human SGLT2 sequence (NM_003041) was prepared from human nephric mRNA as with the above method, and then introduced into pcDNA3.1+hygro from Invitrogen Corporation. Each cloned sequence was confirmed to be identical with the reported sequence.
(§2) CHO-K1 cells were transfected with the human SGLT1 and human SGLT2 expression vectors using Lipofectamine 2000 (Invitrogen Corporation). SGLT expression cells were cultured in the presence of geneticin (SGLT1) or hygromycin B (SGLT2) of the concentration of 500 μg/mL to select resistant strains. Cells were obtained using sugar uptake specific activity as an index in the following system.
(§3) Cells stably expressing human SGLT1 and human SGLT2 were used in the sodium-dependent sugar uptake activity inhibition test. Cells were incubated in 1 mL of a pretreatment buffer solution (140 mM choline chloride, 2 mM KCl, 1 mM CaCl2, 1 mM MgCl2, 10 mM HEPES/5 mM Tris, pH 7.4) for 20 minutes. The pretreatment buffer solution was removed and 200 μL of an uptake buffer containing test compounds (methyl-α-D-glucopyranoside containing [^14C]methyl-α-D-glucopyranoside (0.1 mM for SGLT1 inhibition, 1 mM for SGLT2 inhibition), 140 mM NaCl, 2 mM KCl, 1 mM CaCl2, 1 mM MgCl2, 10 mM HEPES/5 mM Tris, pH 7.4) were added, and uptake reaction was performed at 37° C. for 30 minutes (SGLT1) or for one hour (SGLT2). After the reaction, cells were washed with 1 mL of a washing buffer (10 mM methyl-α-D-glucopyranoside, 140 mM choline chloride, 2 mM KCl, 1 mM CaCl2, 1 mM MgCl2, 10 mM HEPES/5 mM Tris, pH 7.4) twice and dissolved in 400 μL of 0.2 M NaOH solution. After Aquazole 2 (Perkin Elmer Corporation) was added and mixed well, radioactivity was measured with a liquid scintillation counter (Beckman Coulter Corporation). A buffer for uptake which contained no test compound was prepared as a control group. Another buffer solution for uptake containing choline chloride in place of NaCl was also prepared for basic uptake.

Human SGLT1 = target: T2, Human SGLT1 (Homo sapiens, UniProt P13866); experiment: Sodium-dependent sugar uptake inhibition test in CHO-K1 cells stably expressing human SGLT1 (Test Example 2); format: cell-based; conditions: [14C]methyl-α-D-glucopyranoside 0.1 mM, 37° C., 30 minutes
T2 construct: expressed in transfected cells; host or cells: CHO-K1
T2 sequence (P13866 1-664): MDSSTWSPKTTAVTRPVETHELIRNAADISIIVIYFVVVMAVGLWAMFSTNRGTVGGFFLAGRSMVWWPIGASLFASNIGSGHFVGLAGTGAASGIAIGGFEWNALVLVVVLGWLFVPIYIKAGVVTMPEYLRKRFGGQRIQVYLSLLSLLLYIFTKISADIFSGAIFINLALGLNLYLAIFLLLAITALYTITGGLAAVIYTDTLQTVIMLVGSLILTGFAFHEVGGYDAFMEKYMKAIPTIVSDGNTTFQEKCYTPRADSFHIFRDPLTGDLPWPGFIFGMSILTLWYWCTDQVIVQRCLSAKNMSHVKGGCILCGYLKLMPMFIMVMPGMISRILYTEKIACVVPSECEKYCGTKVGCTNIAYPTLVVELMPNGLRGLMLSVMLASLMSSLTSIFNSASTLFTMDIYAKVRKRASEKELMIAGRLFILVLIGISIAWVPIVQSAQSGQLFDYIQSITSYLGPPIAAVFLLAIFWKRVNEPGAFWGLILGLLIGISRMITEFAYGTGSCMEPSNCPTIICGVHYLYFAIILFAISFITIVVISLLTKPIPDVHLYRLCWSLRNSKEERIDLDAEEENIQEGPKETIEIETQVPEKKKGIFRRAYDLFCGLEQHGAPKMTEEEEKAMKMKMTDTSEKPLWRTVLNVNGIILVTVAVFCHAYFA
Method: as §1, §2, §3

Row | Structure (SMILES) | IC50 (Human SGLT2) [nM] | SGLT1/SGLT2 (Human SGLT2) | IC50 (Human SGLT1) [nM]
1 | CCc1ccc(Cc2cccc([C@@H]3S[C@H](CO)[C@@H](O)[C@H](O)[C@H]3O)c2)cc1 [Compound 74, (1S)-1,5-anhydro-1-[3-(4-ethylbenzyl)phenyl]-1-thio-D-glucitol] | 1190 | 12.8 | 15300
2 | CCOc1ccc(Cc2cc([C@@H]3S[C@H](CO)[C@@H](O)[C@H](O)[C@H]3O)ccc2OC)cc1 [Compound 77, (1S)-1,5-Anhydro-1-[3-(4-ethoxybenzyl)-4-methoxyphenyl]-1-thio-D-glucitol] | 690 | 11.6 | 8000
3 | CCOc1ccc(Cc2ccc(OC)c([C@@H]3S[C@H](CO)[C@@H](O)[C@H](O)[C@H]3O)c2)cc1 [Compound 78, (1S)-1,5-Anhydro-1-[3-(4-ethoxybenzyl)-6-methoxy-phenyl]-1-thio-D-glucitol] | 1040 | 115.4 | 120000
4 | CCOc1ccc(Cc2cc([C@@H]3S[C@H](CO)[C@@H](O)[C@H](O)[C@H]3O)c(OC)cc2OC)cc1 [Compound 80, (1S)-1,5-Anhydro-1-[4,6-dimethoxy-3-(4-ethoxybenzyl)phenyl]-1-thio-D-glucitol] | 190 | – | 2900
5 | CCOc1ccc(Cc2cc([C@@H]3S[C@H](CO)[C@@H](O)[C@H](O)[C@H]3O)ccc2F)cc1 [Compound 81, (1S)-1,5-Anhydro-1-[3-(4-ethoxybenzyl)-4-fluorophenyl]-1-thio-D-glucitol] | 600 | 10.9 | 6500
6 | CCOc1ccc(Cc2cc([C@@H]3S[C@H](CO)[C@@H](O)[C@H](O)[C@H]3O)ccc2O)cc1 [Compound 82, (1S)-1,5-Anhydro-1-[3-(4-ethoxybenzyl)-4-hydroxyphenyl]-1-thio-D-glucitol] | 3780 | 4.0 | 15000
7 | CCOc1ccc(Cc2cc([C@@H]3S[C@H](CO)[C@@H](O)[C@H](O)[C@H]3O)ccc2C)cc1 [Compound 86, (1S)-1,5-Anhydro-1-[3-(4-ethoxybenzyl)-4-methylphenyl]-1-thio-D-glucitol] | 60 | 18.3 | 1100
8 | COc1ccc(Cc2cc([C@@H]3S[C@H](CO)[C@@H](O)[C@H](O)[C@H]3O)ccc2Cl)cc1 [Compound 88, (1S)-1,5-Anhydro-1-[4-chloro-3-(4-methoxybenzyl)phenyl]-1-thio-D-glucitol] | 80 | 2.8 | 200
9 | CCOc1ccc(Cc2cc([C@@H]3S[C@H](CO)[C@@H](O)[C@H](O)[C@H]3O)c(OC)cc2C)cc1 [Compound 89, (1S)-1,5-anhydro-1-[3-(4-ethoxybenzyl)-6-methoxy-4-methylphenyl]-1-thio-D-glucitol] | 65 | 97.5 | 6300
10 | CCOc1ccc(Cc2cc([C@@H]3S[C@H](CO)[C@@H](O)[C@H](O)[C@H]3O)ccc2Cl)c(F)c1 [Compound 91, (1S)-1,5-Anhydro-1-[4-chloro-3-(2-fluoro-4-ethoxybenzyl)phenyl]-1-thio-D-glucitol] | 110 | 15.5 | 1700

Second part, the compound after the results:

Row | IC50 (Human SGLT2) [nM] | SGLT1/SGLT2 (Human SGLT2) | IC50 (Human SGLT1) [nM] | Structure (SMILES)
11 | 30 | 7.7 | 200 | Cc1ccc(Cc2cc([C@@H]3S[C@H](CO)[C@@H](O)[C@H](O)[C@H]3O)ccc2Cl)cc1 [Compound 92, (1S)-1,5-Anhydro-1-[4-chloro-3-(4-methylbenzyl)phenyl]-1-thio-D-glucitol]
12 | 21 | 21.0 | 400 | CSc1ccc(Cc2cc([C@@H]3S[C@H](CO)[C@@H](O)[C@H](O)[C@H]3O)ccc2Cl)cc1 [Compound 93, (1S)-1,5-Anhydro-1-[4-chloro-3-(4-methylthiobenzyl)phenyl]-1-thio-D-glucitol]
13 | 250 | 1.3 | 300 | OC[C@H]1S[C@@H](c2ccc(Cl)c(Cc3ccc(O)cc3)c2)[C@H](O)[C@@H](O)[C@@H]1O [Compound 94, (1S)-1,5-Anhydro-1-[4-chloro-3-(4-hydroxybenzyl)phenyl]-1-thio-D-glucitol]
14 | 28 | 22.3 | – | CCc1ccc(Cc2cc([C@@H]3S[C@H](CO)[C@@H](O)[C@H](O)[C@H]3O)ccc2Cl)cc1 [Compound 95, (1S)-1,5-Anhydro-1-[4-chloro-3-(4-ethylbenzyl)phenyl]-1-thio-D-glucitol]
15 | 62 | 116.3 | 7300 | CC(C)c1ccc(Cc2cc([C@@H]3S[C@H](CO)[C@@H](O)[C@H](O)[C@H]3O)ccc2Cl)cc1 [Compound 96, (1S)-1,5-Anhydro-1-[4-chloro-3-(4-isopropylbenzyl)phenyl]-1-thio-D-glucitol]
16 | 15 | 6.5 | 100 | CCOc1ccc(Cc2cc([C@@H]3S[C@H](CO)[C@@H](O)[C@H](O)[C@H]3O)c(O)cc2C)cc1 [Compound 98, (1S)-1,5-Anhydro-1-[3-(4-ethoxybenzyl)-6-hydroxy-4-methylphenyl]-1-thio-D-glucitol]
17 | 32 | 178.6 | 5600 | CCOc1ccc(Cc2cc([C@@H]3S[C@H](CO)[C@@H](O)[C@H](O)[C@H]3O)c(OC)cc2Cl)cc1 [Compound 99, (1S)-1,5-anhydro-1-[4-chloro-5-(4-ethoxybenzyl)-2-methoxyphenyl]-1-thio-D-glucitol]
18 | 40 | 63.1 | 2600 | CCc1ccc(Cc2cc([C@@H]3S[C@H](CO)[C@@H](O)[C@H](O)[C@H]3O)c(OC)cc2C)cc1 [Compound 101, (1S)-1,5-Anhydro-1-[3-(4-ethylbenzyl)-6-methoxy-4-methylphenyl]-1-thio-D-glucitol]
19 | 2910 | – | – | OC[C@H]1S[C@@H](c2cccc(Cc3ccc(-c4ccccc4)s3)c2)[C@H](O)[C@@H](O)[C@@H]1O [Compound 134]
20 | 33000 | – | – | CCOc1ccc(Cc2cncc([C@@H]3S[C@H](CO)[C@@H](O)[C@H](O)[C@H]3O)c2)cc1 [Compound 138, (1S)-1,5-anhydro-1-[5-(4-ethoxybenzyl)pyridin-3-yl]-1-thio-D-glucitol]
21 | 114000 | – | – | CCc1ccc(Cc2ccc([C@@H]3S[C@H](CO)[C@@H](O)[C@H](O)[C@H]3O)s2)cc1 [Compound 139, (1S)-1,5-anhydro-1-[5-(4-ethylbenzyl)thiophen-2-yl]-1-thio-D-glucitol]
